Measured values published in patent US20220030866A1, “CONJUGATES OF AUXIN ANALOGS” (The State of Israel, Ministry of Agriculture & Rural …, priority 2019, published 2022).

Assays:
[1] = test system: transgenic citrus rootstocks; assay: rooting of transgenic citrus rootstocks in tissue culture; assay type: in vivo; conditions: 0% without compound, data not shown
Excerpt: Compound 82 was also used to induce rooting of transgenic citrus rootstocks in tissue culture. It is well known that shoots created in tissue culture conditions following genetic modifications are typically difficult to root. Using Compound 82, 60% rooting was obtained, as compared to 0% without Compound 82 (data not shown).

[2] = test system: argan (Argania spinosa) cuttings; assay: rooting of argan cuttings; assay type: in vivo; conditions: after 1.5 months; compound with IBA, or IBA control
Experimental: The ability of exemplary conjugates to promote rooting in plants which are recalcitrant to rooting (in addition to the results obtained with Eucalyptus grandis in Example 3) was examined using cuttings of argan (Argania spinosa) and jojoba (Simmondsia chinensis) in a commercial nursery (Shorashim). The argan and jojoba cuttings were treated with 100 μM of a conjugate (any of Compounds 10-1t) with 6000 ppm IBA. The common treatment T-8 (talc with 8000 ppm IBA and a fungicide) or 6000 ppm IBA (without conjugate) served as a control.
Exemplary conjugates were also tested for rooting the hard-to-root species of avocado (VC801 rootstock) and argan, according to procedures described hereinabove.

[3] = test system: DR5:venus marker; assay: auxin activity by DR5:venus fluorescence in Arabidopsis plants; assay type: in vivo; conditions: 10 μM
Experimental: Imaging was performed using an SP8 Leica confocal microscope including solid-state lasers producing 405, 488, 514 and 552 nm light, and hybrid or PMT detectors. Objectives were either PL APO 20×/0.75, WD 0.62 mm or PL APO 63×/1.2 WD 0.3 mm. For fluorescence measurements, the Imaris™ spot detection option (Bitplane A.G.) was used to segment nuclei and calculate the average signal intensity.
One technique for assessing auxin activity of the 4-CPA amino acid conjugates utilized plants expressing nucleus-localized, fluorescent DR5:venus marker, the expression level of which is an indicator of intracellular auxin activity [Laskowski et al., PLoS Biol 2008, 6:e307]. Four days old seedlings grown on regular MS medium were transferred to plates containing 10 μM of the tested compounds and fluorescence was inspected by confocal microscope after 24 hours.
In order to assess the ability of the abovementioned sodium salts to penetrate the cells and activate an auxin response, an Arabidopsis DR5-Venus model was utilized (as described hereinabove). The plants were exposed to 10 μM of each compound for 24 hour; MS medium was used as a negative control, and the related Compounds 1p, 1r and 1t were used as positive controls.

[4] = test system: cannabis clone; assay: rooting of a difficult to root cannabis clone; assay type: in vivo; conditions: 6000 ppm IBA with 50 μM compound for 1 minute; 2 weeks; vs IBA alone
Experimental: Cannabis is usually an easy to root plant. […] A relatively difficult to root cannabis clone was treated with 6000 ppm IBA or with a similar treatment combined with 50 μM of Compound 82 (4-CPA-L-Trp sodium salt) for 1 minute. Rooting was scored after 2 weeks.

[5] = test system: avocado rootstock cuttings; assay: rooting of avocado rootstock cuttings; assay type: in vivo
Procedure, shortened: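 Green cuttings of avocado rootstock (including hard-to-root VC801) were treated with auxin conjugates in the presence of IBA and scored for rooting.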

[6] = test system: mung bean cuttings; assay: rooting of mung bean cuttings (number of adventitious roots per cutting); assay type: in vivo; conditions: 50 μM
Procedure, shortened: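 Readout was the number of adventitious roots per cutting in mung bean cuttings. Conjugates of 4-CPA, MCPA and 2-DP were tested alongside unconjugated IBA and 2-DP–glycine methyl ester.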

[7] = test system: Eucalyptus brachyphylla cuttings; assay: rooting of Eucalyptus brachyphylla cuttings; assay type: in vivo; conditions: K-IBA alone or with 100 μM compound
Experimental: (§1) In order to investigate cloning of productive eucalyptus trees from cuttings, branches were excised from mature Eucalyptus x trabutii and Eucalyptus brachyphylla trees the field (in Kfar Pines, Israel)—selected based on their exceptional nectar production and honeybee attraction—placed in a humidified cooler box and brought to a climate-controlled greenhouse within 2 hours. Each cutting, 7 cm long, included three nodes with only two leaves remaining at its apical end. Two-thirds of each blade was excised to minimize evapotranspiration. The cutting bases were submerged for 1 minute in 6 grams/liter indole-3-butyric acid potassium salt (K-IBA), optionally supplemented with Compound 1s or 1t at a concentration of 100 μM. In addition, the leaves were sprayed with 100 μM of each compound in the presence of 0.05% Triton X-100 surfactant. Stock solutions of Compounds 1s and 1t were at a concentration of 100 mM in DMSO. The cuttings were planted in rooting medium containing peat, vermiculite and polystyrene flakes at a ratio of 1:2:3 respectively, on a heated rooting table under 90% humidity. Fungicides were applied to the rooting media on a weekly basis. Rooting percentage, number of roots per cutting and root length were measured after 1 and 2 weeks and after 1 and 2 months.

[8] = test system: Arabidopsis seedlings; assay: root elongation inhibition in Arabidopsis seedlings; assay type: in vivo
[9] = test system: cuttings from mature Eucalyptus grandis trees; conditions: literature value for this model (Abu-Abied et al. 2012); cited from earlier work
[10] = test system: Eucalyptus x trabutii cuttings; assay: rooting of Eucalyptus x trabutii cuttings; assay type: in vivo; conditions: K-IBA alone or with 100 μM compound
Experimental: as §1

[11] = test system: cuttings from mature Eucalyptus grandis trees; assay: rooting of cuttings from mature Eucalyptus grandis trees; assay type: in vivo
Procedure, shortened: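 Cuttings (12-15 cm, two upper leaves halved) from branches of 8-year-old net-house plants; bases dipped 1 min in 6000 ppm IBA potassium salt plus 50 μM conjugate, leaves sprayed with 50 μM conjugate in 0.5% Triton X-100. Rooted at 25° C, 90% humidity, peat:vermiculite:polystyrene 1:2:3; rooting scored after 30-60 days.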

Row | SMILES | rooting of transgenic citrus rootstocks [1] [%] | rooting in argan clone YM3 [2] [%] | roots per cutting in argan clone YM3 [2] | DR5 fluorescence (auxin activity), in words [3] | number of roots in cannabis, in words [4] | rooting percentage in cannabis, in words [4] | root architecture / root length of VC801 avocado cuttings compared to IBA control, in words ([5]; VC801 rootstock) | rooting of mung bean cuttings (number of roots per cutting) ([6]; Table 1, water control 29.6) | rooting of mung bean cuttings (number of roots per cutting) ([6]; Table 2) | mean root number per cutting, E. brachyphylla [7] | effect on root elongation relative to control, in words ([8]; 50 nM, after 5 days) | concentration required to inhibit root elongation ([8]; 4 day old seedlings, 5 days on vertical plates) [µM] | root development in the presence of IBA potassium salt [9] | rooting of VC801 avocado cuttings ([5]; VC801 rootstock, conjugate, or IBA control) | rooting rate of etiolated avocado branches ([5]; vc51 rootstock, IBA) [%] | rooting rate of green avocado branches ([5]; vc51 rootstock, IBA) [%] | mean root number per cutting, E. x trabutii [10] | percentage of cuttings which exhibited rooting, stand-alone treatment ([11]; 100 μM conjugate without IBA, or 28 mM (6000 ppm) IBA alone, submerging base or spraying, scored after 45-60 days) [%] | rooting of cuttings, repeated experiment in a different season ([11]; Example 12 repeat: 6000 ppm IBA with 50 μM conjugate, or IBA control) [%]
1 | O=C(COc1ccc(Cl)cc1)N[C@@H](Cc1c[nH]c2ccccc12)C(=O)[O-].[Na+] [Compound 82, 4-CPA-L-Trp sodium salt] | 60 | 80 | about 7 | about as active as their non-water soluble methyl esters | significant increase in number of roots | small increase in the rooting percentage | considerably increased root length | – | – | – | – | – | – | – | – | – | – | – | –
2 | O=C(O)CCCc1c[nH]c2ccccc12 [IBA, indole-3-butyric acid, reference compound] | – | 50 | 2-3 | – | – | – | – | 81.0 | 101 | about 4 | no apparent inhibitory effect on root elongation | 1 to 10 | 5-15% | about 35% | 80 | 10 | about 5 | 12 | 10
